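Test compounds were applied to cells in 96-well plates for 48 hours at 5 doses. At the GI50, growth is halved. The concentration for full growth arrest is given as TGI.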
Columns and labels:
Experiment in all cases: NCI-60 cell line screen, 48 h
[1] = system: COLO 205 colon
[2] = system: OVCAR-5 ovarian
[3] = system: M14 melanoma
[4] = system: CAKI-1 renal
[5] = system: SK-MEL-28 melanoma
[6] = system: RXF 393 renal
[7] = system: CCRF-CEM leukemia
[8] = system: MOLT-4 leukemia
[9] = system: PC-3 prostate
[10] = system: HT29 colon
[11] = system: 786-0 renal
[12] = system: SK-MEL-5 melanoma
[13] = system: NCI-H226 lung
[14] = system: NCI/ADR-RES ovarian
[15] = system: KM12 colon
[16] = system: SW-620 colon
[17] = system: HOP-92 NSCLC
[18] = system: SK-OV-3 ovarian
[19] = system: HS 578T breast
[20] = system: OVCAR-8 ovarian
[21] = system: HCT-15 colon
[22] = system: SNB-19 CNS
[23] = system: HCT-116 colon
[24] = system: ACHN renal
[25] = system: SF-539 CNS
[26] = system: A549 NSCLC
[27] = system: DU-145 prostate
[28] = system: NCI-H522 lung
[29] = system: A498 renal
[30] = system: SN12C renal
[31] = system: MDA-MB-231 breast
[32] = system: MDA-MB-435
[33] = system: UO-31 renal
[34] = system: SF-268 CNS
[35] = system: MCF7 breast
[36] = system: K-562 leukemia
[37] = system: HCC-2998 colon
[38] = system: IGROV1 ovarian
[39] = system: T-47D breast
[40] = system: RPMI-8226 leukemia
[41] = system: TK-10 renal
[42] = system: NCI-H460 lung
[43] = system: SF-295 CNS
[44] = system: U251 CNS
[45] = system: BT-549 breast
[46] = system: UACC-257 melanoma
[47] = system: HL-60(TB) leukemia
[48] = system: NCI-H23 lung
[49] = system: OVCAR-4 ovarian
[50] = system: HOP-62 NSCLC

ClC(Cl)c1nc(-c2cccs2)n2nc(-c3ccccc3)cc2n1
GI50 [1]: 476 nM
TGI [1]: 2070 nM
GI50 [2]: 1740 nM
TGI [2]: 5120 nM
GI50 [3]: 4350 nM
TGI [3]: > 100000 nM
GI50 [4]: 1130 nM
TGI [4]: 4010 nM
GI50 [5]: 1690 nM
TGI [5]: 3220 nM
GI50 [6]: 477 nM
TGI [6]: 1690 nM
GI50 [7]: 5920 nM
TGI [7]: > 100000 nM
GI50 [8]: 2820 nM
TGI [8]: > 100000 nM
GI50 [9]: 1180 nM
TGI [9]: 3750 nM
GI50 [10]: 355 nM
TGI [10]: 1750 nM
GI50 [11]: 2370 nM
TGI [11]: > 100000 nM
GI50 [12]: > 100000 nM
TGI [12]: > 100000 nM
GI50 [13]: > 100000 nM
TGI [13]: > 100000 nM
GI50 [14]: 912 nM
TGI [14]: 4090 nM
GI50 [15]: 2480 nM
TGI [15]: 8340 nM
GI50 [16]: 681 nM
TGI [16]: 3490 nM
GI50 [17]: 444 nM
TGI [17]: 2480 nM
GI50 [18]: 1890 nM
TGI [18]: 6660 nM
GI50 [19]: 1600 nM
TGI [19]: 4710 nM
GI50 [20]: 1150 nM
TGI [20]: > 100000 nM
GI50 [21]: 1060 nM
TGI [21]: 3630 nM
GI50 [22]: 635 nM
TGI [22]: 3710 nM
GI50 [23]: 1300 nM
TGI [23]: 6870 nM
GI50 [24]: 274 nM
TGI [24]: 1050 nM
GI50 [25]: 1100 nM
TGI [25]: 2940 nM
GI50 [26]: 680 nM
TGI [26]: 2730 nM
GI50 [27]: 293 nM
TGI [27]: 770 nM
GI50 [28]: > 100000 nM
TGI [28]: > 100000 nM
GI50 [29]: 1250 nM
TGI [29]: 2530 nM
GI50 [30]: > 100000 nM
TGI [30]: > 100000 nM
GI50 [31]: 500 nM
TGI [31]: 2750 nM
GI50 [32]: 1470 nM
TGI [32]: 2990 nM
GI50 [33]: 1190 nM
TGI [33]: 4520 nM
GI50 [34]: 1600 nM
TGI [34]: 5180 nM
GI50 [35]: 425 nM
TGI [35]: 3530 nM
GI50 [36]: 2130 nM
TGI [36]: > 100000 nM
GI50 [37]: 464 nM
TGI [37]: 1740 nM
GI50 [38]: 2650 nM
TGI [38]: > 100000 nM
GI50 [39]: 1510 nM
TGI [39]: 5720 nM
GI50 [40]: 472 nM
TGI [40]: 2560 nM
GI50 [41]: 3230 nM
TGI [41]: 6250 nM
GI50 [42]: 299 nM
TGI [42]: 974 nM
GI50 [43]: 801 nM
TGI [43]: 3390 nM
GI50 [44]: 326 nM
TGI [44]: 1820 nM
GI50 [45]: 8730 nM
TGI [45]: > 100000 nM
GI50 [46]: 2400 nM
TGI [46]: 5680 nM
GI50 [47]: 267 nM
TGI [47]: 1310 nM
GI50 [48]: 1470 nM
TGI [48]: 4440 nM
GI50 [49]: 2020 nM
TGI [49]: 5060 nM
GI50 [50]: 419 nM
TGI [50]: 2990 nM
